One data set deals with human DOR (Homo sapiens, UniProt P41143). As to conditions: relative scintillation compared to Leu-ENK at 6 nmol/L, [3H]DADLE displacement, mean of duplicates. The method, then: Binding studies were performed by Eurofins Scientific (Cereb, France). Briefly, COS-1 cells transfected with plasmids encoding human DOR (Gene ID: 4985) were grown in Dulbecco's modified Eagle's medium with 10% fetal calf serum and scraped from plates. Membranes were prepared using a Dounce homogenizer and stored at −80° C. until used. Membranes (40 μg protein/tube) were suspended in Tris-HCl, pH 7.4, for 2 h at 25° C., rapidly filtered on 0.1% polyethylenimine-pretreated GF/B filters and washed with the same cold Tris buffer (3×) using a Brandel cell harvester. […] Nonspecific binding was determined in the presence of naltrexone (10 μmol/L).

Another data set is described as follows: Plasma stability assay. The data set is classed as in vitro ADME, mouse. As to conditions: for remaining at 1 h, 0.315 mmol/L: mouse plasma, 37° C., read-out: Intact peptide after 1 h in plasma. The method, then: (§1) Peptides (1.5 g/L) dissolved in saline/TWEEN 80/DMSO (90:5:5, v/v) were mixed with mouse plasma or human cerebrospinal fluid, respectively, to a final concentration of 0.315 mmol/L and incubated in a thermomixer (37° C., 750 rpm) Aliquots (45 μL) were mixed with aqueous acetonitrile (90%, v/v, 300 μL) containing formic acid (FA, 0.1%, v/v) and incubated on ice (30 min). After two centrifugation steps (12,000×g, 5 min), the supernatant (300 μL) was diluted in water (900 μL), dried by lyophilization, reconstituted in aqueous acetonitrile (4.5%, v/v) containing FA (0.1%, v/v), stored at −20° C., and analyzed with reverse-phase chromatography (RPC) on a C8-column (1 mm×150 mm) with a linear aqueous acetonitrile gradient typically from 5 to 95% eluent B in 15 min (eluent A: 0.1% (v/v) aqueous FA; eluent B: 90% aqueous acetonitrile containing 0.1% (v/v) FA. The RPC was coupled on-line to a UV detector measuring the absorbance at 214 nm and a mass spectrometer (MS) for peak identification. Peptide quantities were estimated using peak areas of the UV signal relative to the initial peak areas (t=0).

The nature of another data set: CSF stability assay. The class given is in vitro ADME, human. As to conditions: 5 h of incubation. As for the experimental part: as §1
Data set [1] relates to female CD1 mice. The data set can be described thus: Toxicity, highest deliverable single dose. The class given is in vivo, mouse. As to conditions: single s.c. dose. The method, then: Animals were monitored and evaluated every 30 min. After 3 h, the time of maximal antinociceptive effect, animals were euthanized.
Data set [2] has as its system female CD-1 mice. The data set is described as follows: Open field test. As to conditions: 15 mg/kg s.c. The text has this: (§2) Mice were allowed an acclimatization period of at least one week in the animal facility before experiments.
A short description of data set [3]: Stability in the presence of human liver microsomes. The class given is in vitro ADME. Conditions: after 1 h, read-out: drug degradation in the presence of human liver microsomes.
Data set [4] has as its system female CD-1 mice. The data set is described as follows: Respiratory rate assay. Conditions: s.c.; for breathing depression: KK-103 13 mg/kg, morphine 10 mg/kg, FIG. 10C. As for the experimental part:
The respiratory rate was assessed in awake mice lightly restrained in a well-ventilated 50 mL falcon tube with a darkened tip. Prior to the drug treatment, each animal was habituated in the tube for 30 min. The falcon tube was secured onto a stand facing lengthwise to a video camera. […] Animals were recorded at selected time points for 10 min to measure the respiration rate.

The nature of data set [5]: Plasma and brain concentrations after injection (UPLC). The data set is classed as in vivo. Conditions: female, CD-1, mouse; for tissue level at time at 2 h: 2 h after s.c. injection; for half-life: 50 mg/kg, read-out: elimination half-life. As for the experimental part: Blood collection from mice was performed by saphenous vein punctuation (volume withdrawn <7 mL/kg) followed by a cardiac puncture later, allowing for 2 sampling time points per animal with a minimum sampling interval of 50 min. Cardiac puncture was an experimental endpoint after which animals were euthanized using isoflurane followed by cervical dislocation. Blood samples were collected in EDTA coated collection tubes and chilled on ice immediately after collection. Blood plasma was separated from whole blood by centrifugation at 2.000 g for 7 min and carefully removed from the cell pellet. Blood plasma samples were immediately frozen on dry ice and stored at −80 C until further analysis.
Samples for liquid chromatography-mass spectrometry analysis were prepared by acetonitrile protein precipitation. Therefore, 50 μL of plasma was combined with 300 μL ice cold 90% acetonitrile containing 0.1% formic acid, briefly vortexed and put on ice for 30 min. After that samples were centrifuged at 4 C for 5 min (>12 k rpm) and supernatant (325 μL) transferred in a new tube. The previous centrifugation step was repeated and a final volume of 305 μL of the supernatant transferred into a new 1.5 mL tube. Water (800 μL) was added to samples after which they were frozen and lyophilized. The dried samples were resolubilized in 50 μL 4.5% acetonitrile, 0.1% formic acid in water, vortexed (1 min), sonicated (5 min), vortexed (1 min) and centrifuged for 5 min (>12 k rpm). Samples were measured in an ACQUITY UPLC H-Class chromatography system (Waters, Milford, MA) and a sample volume of 10 μL was injected onto the reverse phase column.
An ACQUITY UPLC H-Class chromatography system (Waters, Milford, MA) coupled on-line to a photodiode array detector (absorbance recorded at 214 nm, Waters) and to the electrospray ionization source on a mass spectrometer (QDa detector, Waters) operated in the positive ion mode was used. Separation relied on a BEH-C18 column (inner diameter: 1.1 mm; length: 50 mm; particle size: 1.7 μm, Waters) at a flow rate of 0.1 mL/min using a linear aqueous acetonitrile gradient in the presence of FA (0.1%, v/v).
Ionization was carried out at a source temperature of 450° C. using a cone voltage of 10 V and a capillary voltage of 1.5 kV. Mass spectra were typically acquired for an m/z range from 50 to 1250 at a sampling rate of 2 points per second. Quantities of the peptide were determined based on a calibration curve of the analyte in mouse plasma and the peak areas of the UV signal at 214 nm as well as mass spectrometry by detecting the singly charged molecular ions.

Data set [6] can be described thus: Solubility in injection vehicle. The data set is classed as physicochemical. As to conditions: normal saline/TWEEN 80 (9/1, v/v) injection vehicle.
The test system of data set [7] is female CD1 mice. The data set can be described thus: Dependence test (naloxone-induced jumps). As to conditions: twice daily s.c., KK-103 13 mg/kg, morphine 10 mg/kg; naloxone 4 mg/kg i.p., first 10 min.
Data set [8] relates to human liver microsome enzymes. The data set is described as follows: Inhibition of human liver microsome enzymes. The data set is classed as in vitro ADME. For orientation: Liver microsomes are vesicles of endoplasmic reticulum, rich in cytochrome P450 enzymes.
Data set [9] relates to female CD-1 mice. The data set is described as follows: Formalin foot assay. As to conditions: s.c. The class given is in vivo, mouse. As for the experimental part: as §2
On the day of the experiment, mice were acclimatized to the experimental setup by putting them in darkened, non-transparent plexiglas cylinders (height, 20 cm; diameter, 9 cm) placed on a glass plane for 2 h. […] After successful injection, mice were immediately placed into cylinders and their behavior was monitored for 1 h. […] The accumulated licking and biting time of each animal was determined and recorded in 5 min bins. The total response time was plotted as early phase 1 from 0 to 5 min, and late phase 2 from 20 to 40 min after formalin injection.

For data set [10], the system named is female CD1 mice. Conditions: mouse, in vivo; cited from earlier work.

In brackets after ≈: the same amount, converted by molar mass. Several values for one entry are separate records, joined by “and”; a condition that tells them apart may be missing. Identical values can stand only once. Entries after “also recorded” stand apart in the source; their conditions may differ. Like-named read-outs stand apart in the source and are kept apart here.

Chain of human DOR (P41143 whole entry): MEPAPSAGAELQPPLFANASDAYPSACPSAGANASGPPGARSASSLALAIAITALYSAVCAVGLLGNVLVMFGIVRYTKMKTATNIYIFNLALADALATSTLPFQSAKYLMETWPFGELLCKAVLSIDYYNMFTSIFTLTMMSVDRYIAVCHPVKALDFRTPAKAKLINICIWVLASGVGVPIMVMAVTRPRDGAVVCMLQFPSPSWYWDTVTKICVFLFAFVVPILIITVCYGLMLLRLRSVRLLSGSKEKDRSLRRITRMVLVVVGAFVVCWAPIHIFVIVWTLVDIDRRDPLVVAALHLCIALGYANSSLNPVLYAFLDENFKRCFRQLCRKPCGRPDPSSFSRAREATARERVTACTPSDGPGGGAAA

Regarding `COC(=O)[C@H](CC(C)C)NC(=O)[C@H](Cc1ccccc1)NC(=O)CNC(=O)CNC(=O)[C@H](Cc1ccc(O)cc1)NC(=O)Cc1ccccc1` [KK-81], the “Relative Binding to DOR” value at human DOR is reported as 41%. Also, the remaining at 1 h, 0.315 mmol/L in the data set “Plasma stability assay” is 88 ± 11%.

Consider `CCCCCCCC(=O)N[C@@H](Cc1ccc(O)cc1)C(=O)NCC(=O)NCC(=O)N[C@@H](Cc1ccccc1)C(=O)N[C@@H](CC(C)C)C(=O)OC` [KK-105], for which, on human DOR, the “Relative Binding to DOR” value was 59%. Besides, the remaining at 1 h, 0.315 mmol/L in “Plasma stability assay” worked out at 80 ± 12%.

With `CC(C)C[C@H](NC(=O)[C@H](Cc1ccccc1)NC(=O)CNC(=O)CNC(=O)[C@@H](N)Cc1ccc(O)cc1)C(=O)O` [Leu-ENK, YGGFL, reference compound], the remaining at 1 h, 0.315 mmol/L in “Plasma stability assay” stood at 23 ± 3%.

As usually defined, the half-life is the time needed for the level to fall by half in the phase considered. One may read the solubility as the dissolved amount per volume that the medium holds. Read a high solubility as a readily soluble substance. Take `CC(C)C[C@H](NC(=O)[C@H](Cc1ccccc1)NC(=O)CNC(=O)CNC(=O)[C@H](Cc1ccc(O)cc1)NC(=O)C(C)(C)C)C(=O)O` [KK-103]: the “stability in cerebrospinal fluid” value in “CSF stability assay” is given as “almost no degradation”. For the same molecule, the “Relative Binding to DOR” value at human DOR was 65% and ~70%. The “toxicity at the highest deliverable dose” value with female CD1 mice [1] is “no toxicity”. Besides, the “effect on locomotor activity” value with female CD-1 mice [2] is given as “without effecting the locomotor activity”. Further, the metabolised at 1 h in [3] was < 10%. Besides, the “time stable in mouse plasma” value in “Plasma stability assay” was “at least 5 h”. In the data set “Plasma stability assay” (extrapolated), the “half-life in mouse plasma” value is on record as 36 h. Further, the remaining at 1 h, 0.315 mmol/L in “Plasma stability assay” turned out to be 93%. The half-life at 0.315 mmol/L in “Plasma stability assay” (mouse, plasma, extrapolated) was 37 h. In the data set with female CD-1 mice [4] (13 mg/kg, any time point between 30 and 240 min), the “respiration rate versus vehicle” value is “comparable to that of mice treated with vehicle”. For the same molecule, the breathing depression result with female CD-1 mice [4] is recorded as “did not induce breathing depression”. Also, the tissue level at time at 2 h turned out to be 200 ng/g in [5] (brain, sc, read-out: concentration in brain) and 170000 ng/g in [5] (plasma, sc, read-out: concentration in plasma). Moreover, the half-life in [5] (plasma, iv) worked out at 4.8 min; in [5] (plasma, sc), 8.9 min. The molecule further registered a solubility in data set [6] of 5000 µg/mL (≈ 7.82 mM). In addition, the “physical dependence: withdrawal jumps after naloxone” value with female CD1 mice [7] is given as “not a single jump was observed”. Further, the “inhibition of human liver microsome enzymes” value in [8] is given as “did not inhibit”.

For the molecule `COC(=O)[C@H](CC(C)C)NC(=O)[C@H](Cc1ccccc1)NC(=O)CNC(=O)CNC(=O)[C@H](Cc1ccc(O)cc1)NC(=O)C1CCCCC1` [KK-112], on human DOR, the “Relative Binding to DOR” value came to 13%. The remaining at 1 h, 0.315 mmol/L in the data set “Plasma stability assay” stood at 62 ± 7%.

With `COC(=O)[C@H](CC(C)C)NC(=O)[C@H](Cc1ccccc1)NC(=O)CNC(=O)CNC(=O)[C@H](Cc1ccc(O)cc1)NC(=O)C(C)(C)C` [KK-102], the “Relative Binding to DOR” value on human DOR (listed as KK-102/ KK-103) stood at 68%. Further, in “Plasma stability assay”, the “conversion in mouse plasma (deesterification of methyl ester)” value was “converting to KK-103; also recorded: rapidly deesterifies to KK-103” and the remaining at 1 h, 0.315 mmol/L came to 93 ± 1%.

Take `CN1CC[C@]23c4c5ccc(O)c4O[C@H]2[C@@H](O)C=C[C@H]3[C@H]1C5` [morphine]: the “nociceptive response in phase 2, in words” value in the data set on female CD-1 mice [9] (10 mg/kg, phase 2 (20-40 min)) is given as “completely diminished the nociceptive response”. Besides, the “reduction of paw licking and biting time, phase 1 (0-5 min), compared to the control” value in the data set with female CD-1 mice [9] (morphine 10 mg/kg, KK-103 13 mg/kg) was found to be 30%. The “dose up to which safe to use” value in the data set on female CD1 mice [10] was “up to 60 mg/kg”. Further, in the data set with female CD-1 mice [4] (10 mg/kg, 30 min post injection), the “decrease of respiratory rate compared with vehicle control” value is on record as 56%. Moreover, the breathing depression entry in the data set on female CD-1 mice [4] is reported as “significant reduction of breathing rate”. The “physical dependence: withdrawal jumps after naloxone” value in the data set on female CD1 mice [7] is “significant withdrawal syndromes”.

Take `CCCCCC(=O)N[C@@H](Cc1ccc(O)cc1)C(=O)NCC(=O)NCC(=O)N[C@@H](Cc1ccccc1)C(=O)N[C@@H](CC(C)C)C(=O)OC` [KK-93]: at human DOR, the “Relative Binding to DOR” value is given as 33%. Moreover, in the data set “Plasma stability assay”, the remaining at 1 h, 0.315 mmol/L amounted to 85 ± 11%.

Turning to `COC(=O)[C@H](CC(C)C)NC(=O)[C@H](Cc1ccccc1)NC(=O)CNC(=O)CNC(=O)[C@H](Cc1ccc(O)cc1)NC(C)=O` [KK-14], at human DOR, the “Relative Binding to DOR” value was determined as 38%. In “Plasma stability assay”, the remaining at 1 h, 0.315 mmol/L amounted to 82 ± 3%.

Regarding `C=CCCC(=O)N[C@@H](Cc1ccc(O)cc1)C(=O)NCC(=O)NCC(=O)N[C@@H](Cc1ccccc1)C(=O)N[C@@H](CC(C)C)C(=O)OC` [KK-108], at human DOR, the “Relative Binding to DOR” value is 34%. In the data set “Plasma stability assay”, the remaining at 1 h, 0.315 mmol/L was 73 ± 7%.

Source of the values: patent US20240010679A1, “ANTIN[…] AND USES THEREOF” (THE UNIVERSITY OF BRITISH COLUMBIA, priority 2020, published 2024).
